{
  "source": "ChEMBL document CHEMBL3217589",
  "about": "“Spiro[[1]benzothiophen-4,4-piperidines] carba analogs of potent 1 ligands” (Medchemcomm, 2013)",
  "key": {"[1]": {"assay": "Displacement of [3H]-di-o-tolylguanidine from sigma-2 receptor in rat liver membranes after 120 mins by scintillation counting analysis", "assay_type": "cell membranes, Membrane"}, "[2]": {"biological_target": "Sigma non-opioid intracellular receptor 1 (Cavia porcellus, UniProt Q60492)", "sequence (Q60492 whole entry)": "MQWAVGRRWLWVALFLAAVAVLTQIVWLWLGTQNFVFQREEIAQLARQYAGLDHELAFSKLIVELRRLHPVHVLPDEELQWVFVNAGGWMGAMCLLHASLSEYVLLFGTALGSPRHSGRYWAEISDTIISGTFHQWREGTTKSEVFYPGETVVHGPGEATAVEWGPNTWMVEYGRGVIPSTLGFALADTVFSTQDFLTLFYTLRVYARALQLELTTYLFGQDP", "assay": "Displacement of [3H]-(+)-pentazocine from sigma-1 receptor in guinea pig brain cortex after 120 mins by scintillation counting analysis", "assay_type": "tissue-based, Cerebral cortex"}, "[3]": {"assay": "Selectivity ratio of Ki for rat liver membrane sigma-2 receptor to Ki for guinea pig brain cortex sigma-1 receptor"}, "[4]": {"biological_target": "Sigma non-opioid intracellular receptor 1 (Homo sapiens, UniProt Q99720)", "sequence (Q99720 whole entry)": "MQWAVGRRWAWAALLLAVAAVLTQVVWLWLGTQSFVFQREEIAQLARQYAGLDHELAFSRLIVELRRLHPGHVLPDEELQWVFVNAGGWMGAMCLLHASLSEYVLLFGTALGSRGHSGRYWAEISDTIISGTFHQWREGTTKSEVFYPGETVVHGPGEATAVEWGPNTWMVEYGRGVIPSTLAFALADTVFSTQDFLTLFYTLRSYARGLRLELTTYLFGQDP", "assay": "Binding affinity to sigma-1 receptor (unknown origin)"}},
  "data": [
    {"compound": "c1ccc(CN2CCC3(CCCc4sccc43)CC2)cc1", "values": [
      {"measurement": "Ki", "setting": "[1]", "result": 172, "unit": "nM"},
      {"measurement": "Ki", "setting": "[2]", "result": 10.5, "unit": "nM"},
      {"measurement": "Ratio Ki", "setting": "[3]", "result": 16}
    ]},
    {"compound": "c1cc2c(s1)CCCC21CCN(CC2CCCCC2)CC1", "values": [
      {"measurement": "Ki", "setting": "[1]", "result": 23, "unit": "nM"},
      {"measurement": "Ki", "setting": "[2]", "result": 4.3, "unit": "nM"},
      {"measurement": "Ratio Ki", "setting": "[3]", "result": 5}
    ]},
    {"compound": "c1ccc(N2CCN(CCC3OCCc4c3cnn4-c3ccccc3)CC2)cc1", "note": "(stereo not given)", "values": [
      {"measurement": "Ki", "setting": "[4]", "result": 2.9, "unit": "nM"}
    ]},
    {"compound": "CN(C)CCC1OCCc2c1cnn2-c1ccccc1", "note": "(stereo not given)", "values": [
      {"measurement": "Ki", "setting": "[4]", "result": 24, "unit": "nM"}
    ]},
    {"compound": "c1ccc(CN2CCC3(CCCc4sccc43)C2)cc1", "note": "(stereo not given)", "values": [
      {"measurement": "Ki", "setting": "[1]", "result": 130, "unit": "nM"},
      {"measurement": "Ki", "setting": "[2]", "result": 29, "unit": "nM"},
      {"measurement": "Ratio Ki", "setting": "[3]", "result": 4}
    ]},
    {"compound": "c1ccc(CCN2CCC3(CCCc4sccc43)CC2)cc1", "values": [
      {"measurement": "Ki", "setting": "[1]", "result": 105, "unit": "nM"},
      {"measurement": "Ki", "setting": "[2]", "result": 277, "unit": "nM"},
      {"measurement": "Ratio Ki", "setting": "[3]", "result": 0.4}
    ]},
    {"compound": "c1ccc(CCCN2CCC3(CCCc4sccc43)CC2)cc1", "values": [
      {"measurement": "Ki", "setting": "[1]", "result": 186, "unit": "nM"},
      {"measurement": "Ki", "setting": "[2]", "result": 46, "unit": "nM"},
      {"measurement": "Ratio Ki", "setting": "[3]", "result": 4}
    ]},
    {"compound": "CCCCN1CCC2(CCCc3sccc32)CC1", "values": [
      {"measurement": "Ki", "setting": "[1]", "result": 48, "unit": "nM"},
      {"measurement": "Ki", "setting": "[2]", "result": 6.3, "unit": "nM"},
      {"measurement": "Ratio Ki", "setting": "[3]", "result": 8}
    ]}
  ]
}
